According to patent publication US9540338B2, “Substituted cinnamic acid amides for treating pain” (NIPPON ZOKI PHARMACEUTICAL CO., LTD., priority 2012, dated 2017):
Structures can show the parent of a compound that is named as a salt. Marks after values point to notes of the source that are not given here.

What was measured:
ddY-type mice = test: Analgesic efficacy test (1): acetic acid writhing test; assay type: in vivo; details: Mus musculus, writhing number, mean ± standard error, 8 mice per group, read-out: Suppressive Rate; for inhibition in vivo at 10 mg/kg: oral single dose 10 mg/kg; for inhibition in vivo at 100 mg/kg: oral single dose 100 mg/kg
Description: A compound of the present invention was orally administered to mice, to carry out an analgesic efficacy test according to acetic acid writhing test. As an experimental animal, 4-week old male ddY-type mice were previously bred, and thereafter 8 mice per one group were used in the experiment. A solution or suspension prepared by dissolving or suspending a compound of the present invention in a 0.5% (w/v) aqueous CMC-Na solution was orally administered as a test substance in a single dose. While, to a control group, a 0.5% (w/v) aqueous CMC-Na solution was administered in the same manner After 25 minutes from administration, the mice were intraperitoneally administered with a 0.7% (v/v) acetic acid/physiological saline at the dose of 10 mL/kg. From 5 minutes thereafter, writhing number in a 10-minute period was counted, and a suppressive rate for each individual (mean±standard error) was calculated by the following formula: […]
In the test for significance difference, Bartlett's test was carried out in the comparison between multiple groups of the group administered with test substance with the control group. In the case of homoscedasticity, Dunnett's multiple comparison test of parametrics, and in the case of heteroscedasticity, Dunnett's multiple comparison test of non-parametrics were used. In addition, in the test of dose dependency, Jonckheere-Terpstra's test was used. In all cases, significance difference was considered to be found at P<0.05 (indicated as “*” in the table).

Chung model rat = test: Analgesic efficacy test (2): Chung model rat, neuropathic pain model (allodynia, von Frey filament); assay type: in vivo, rats; details: mean ± standard error
Protocol: An analgesic efficacy test was conducted using a Chung model rat, a neuropathic pain model. Nine-week old Wistar male rats were previously bred as an experimental animal, and a model rat was then prepared in accordance with the method of Kim and Chung (Pain, 50, 355-363, 1992). Specifically, left L5 spinal nerves of rats were exposed under anesthetization with pentobarbital (40 mg/kg, intraperitoneal administration), and firmly ligated with 5-0 silk yarn at L5 dorsal root ganglion peripheral side. The animals were placed in a transparent acrylic cage of which bottom was wire netted The measurement of allodynia was carried out using von Frey filament (manufactured by North Coast Medical Inc.) and a 50% reaction threshold was calculated according to an up-down method, in accordance with a method of Chaplan et al. (J. Neurosci. Method, 53, 55-63, 1994). The 50% reaction thresholds were measured twice before injury of the spinal nerve, and those animals of which thresholds were outside the standard were removed from the operation of spinal nerve injury. On or after 14 days from the spinal nerve injury, a 50% reaction threshold was measured, and those showing thresholds of 1 g or more and less than 4 g were used as experimental animal. The group was constituted by 7 or 8 rats per group so that an average of a 50% reaction threshold for each group would be nearly even.
A solution or suspension prepared by dissolving or suspending a compound of the present invention in a 0.5% (w/v) aqueous CMC-Na solution was orally administered as a test substance in a single dose. Also, a 0.5% (w/v) aqueous CMC-Na solution was administered in the same manner to the control group for nerve injury. The measurements of allodynia were carried out with the passage of time after administration, and a 50% reaction threshold (mean±standard error) of each group at action peak was calculated. In the test for significance difference, Bartlett's test was carried out in the comparison between multiple groups of the group administered with test substance with the control group for nerve injury. In the case of homoscedasticity, Dunnett's multiple comparison test of parametrics, and in the case of heteroscedasticity, Dunnett's multiple comparison test of non-parametrics were used. In all cases, significance difference was considered to be found at P<0.05 (indicated as “*” in the tables).

[1] = oral 1 mg/kg, measurement point 90 minute (action peak)
[2] = oral 10 mg/kg, measurement point 90 minute (action peak)
[3] = oral 1 mg/kg, measurement point 60 minute (action peak)
[4] = oral 10 mg/kg, measurement point 60 minute (action peak)
[5] = oral 1 mg/kg, measurement point 30 minute (action peak)
[6] = oral 10 mg/kg, measurement point 30 minute (action peak)

| Structure (SMILES) | 50% Reaction Threshold, Group Administered with Test Substance, After Administration (Chung model rat; [1]) | 50% Reaction Threshold, Group Administered with Test Substance, After Administration (Chung model rat; [2]) | 50% Reaction Threshold, Group Administered with Test Substance, After Administration (Chung model rat; [3]) | 50% Reaction Threshold, Group Administered with Test Substance, After Administration (Chung model rat; [4]) | melting point | also measured |
| --- | --- | --- | --- | --- | --- | --- |
| O=C(/C=C/c1ccccc1F)NCCc1c[nH]c2ccccc12 [Compound 1, (E)-3-(2-Fluorophenyl)-N-[2-(1H-indol-3-yl)ethyl]-2-propenamide] | 6.71 ± 1.33 g | 14.06 ± 0.61* g |  |  |  | inhibition in vivo at 10 mg/kg (ddY-type mice): 46.9 ± 7.6%; inhibition in vivo at 100 mg/kg (ddY-type mice): 62.7 ± 6% |
| CN1CCN(CCCNC(=O)/C=C/c2ccccc2F)CC1 [Compound 15, (E)-3-(2-Fluorophenyl)-N-[3-(4-methylpiperazin-1-yl)propyl]-2-propenamide dihydrochloride] | 7.45 ± 1.95* g | 7.43 ± 1.63* g |  |  |  | inhibition in vivo at 10 mg/kg (ddY-type mice): 24.3 ± 12.7%; inhibition in vivo at 100 mg/kg (ddY-type mice): 44.1 ± 6.6% |
| O=C(/C=C/c1ccccc1F)NCCN1CCNCC1 [Compound 16, (E)-3-(2-Fluorophenyl)-N-[2-(piperazin-1-yl)ethyl]-2-propenamide dihydrochloride] | 5.48 ± 0.82 g | 7.48 ± 1.30 g |  |  |  | inhibition in vivo at 10 mg/kg (ddY-type mice): 42.6 ± 9.1%; inhibition in vivo at 100 mg/kg (ddY-type mice): 65.5 ± 8.9% |
| Cl.O=C(/C=C/c1ccccc1F)NCCn1ccnc1 [Compound 21, (E)-3-(2-Fluorophenyl)-N-[2-(imidazol-1-yl)ethyl]-2-propenamide hydrochloride] | 11.78 ± 1.20* g |  |  |  |  | inhibition in vivo at 10 mg/kg (ddY-type mice): 44.5 ± 11.7%; inhibition in vivo at 100 mg/kg (ddY-type mice): 49.7 ± 4.7%; 50% Reaction Threshold, Group Administered with Test Substance, After Administration (Chung model rat; oral 0.1 mg/kg, measurement point 90 minute (action peak)): 6.04 ± 0.89 g; 50% Reaction Threshold, Group Administered with Test Substance, After Administration (Chung model rat; oral 0.3 mg/kg, measurement point 90 minute (action peak)): 8.80 ± 1.42* g |
| O=C(/C=C/c1ccc(F)cc1)Nc1ccc(N2CCOCC2)cc1 [Compound 33, (E)-3-(4-Fluorophenyl)-N-[4-morpholinophenyl]-2-propenamide] |  |  | 8.93 ± 1.46* g | 9.35 ± 2.10* g | 223 to 224 °C |  |
| O=C(/C=C/c1ccccc1F)NCCn1cccn1 [Compound 38, (E)-3-(2-Fluorophenyl)-N-[2-(pyrazol-1-yl)ethyl]-2-propenamide] | 2.74 ± 0.23 g | 4.06 ± 0.52* g |  |  | 124 to 126 °C |  |
| O=C(/C=C/c1ccccc1F)NCCn1ccnn1 [Compound 40, (E)-3-(2-Fluorophenyl)-N-[2-([1,2,3]triazol-1-yl)ethyl]-2-propenamide] |  |  | 3.61 ± 0.41 g | 5.86 ± 1.17* g | 110 to 112 °C |  |
| Cc1nccn1CCNC(=O)/C=C/c1ccccc1F [Compound 42, (E)-3-(2-Fluorophenyl)-N-[2-(2-methylimidazol-1-yl)ethyl]-2-propenamide] |  |  |  |  | 127 to 129 °C | 50% Reaction Threshold, Group Administered with Test Substance, After Administration (Chung model rat; [5]): 2.60 ± 0.32 g; 50% Reaction Threshold, Group Administered with Test Substance, After Administration (Chung model rat; [6]): 4.24 ± 0.35* g |
| C/C(=C\c1ccc(F)cc1)C(=O)NCCCN1CCOCC1 [Compound 46, (E)-3-(4-Fluorophenyl)-2-methyl-N-(3-morpholinopropyl)-2-propenamide] |  |  |  |  | 78 to 79 °C | 50% Reaction Threshold, Group Administered with Test Substance, After Administration (Chung model rat; [5]): 7.51 ± 1.60* g; 50% Reaction Threshold, Group Administered with Test Substance, After Administration (Chung model rat; [6]): 8.70 ± 1.43* g |
| O=C(/C=C/c1ccccc1F)Nc1cccc(-c2ccno2)c1 [Compound 54, (E)-3-(2-Fluorophenyl)-N-[3-(isoxazol-5-yl)phenyl]-2-propenamide] |  |  |  |  | 185 to 187 °C | 50% Reaction Threshold, Group Administered with Test Substance, After Administration (Chung model rat; [5]): 5.18 ± 0.81 g; 50% Reaction Threshold, Group Administered with Test Substance, After Administration (Chung model rat; [6]): 11.20 ± 1.19* g |
| O=C(/C=C/c1ccc(F)cc1)NCCCN1CCSCC1 [Compound 60, (E)-3-(4-Fluorophenyl)-N-(3-thiomorpholinopropyl)-2-propenamide] |  |  |  |  | 121 to 122 °C | 50% Reaction Threshold, Group Administered with Test Substance, After Administration (Chung model rat; [5]): 4.03 ± 0.54 g; 50% Reaction Threshold, Group Administered with Test Substance, After Administration (Chung model rat; [6]): 8.45 ± 1.01* g |
| Cl.O=C(/C=C/c1ccccc1F)NCCCN1CCSCC1 [Compound 61, (E)-3-(2-Fluorophenyl)-N-(3-thiomorpholinopropyl)-2-propenamide hydrochloride] |  |  | 10.64 ± 1.38* g | 11.81 ± 1.47* g | 178 to 179 °C |  |
| Cl.O=C(/C=C/c1ccccc1F)NCCCN1CCS(=O)(=O)CC1 [Compound 62, (E)-N-[3-(1,1-Dioxo-1,4-thiazinan-4-yl)propyl]-3-(2-fluorophenyl)-2-propenamide hydrochloride] | 6.17 ± 1.33 g | 9.22 ± 1.28* g |  |  | 252 to 253 °C |  |
| Cl.O=C(/C=C/c1ccc(F)cc1)NCCCN1CCS(=O)(=O)CC1 [Compound 63, (E)-N-[3-(1,1-Dioxo-1,4-thiazinan-4-yl)propyl]-3-(4-fluorophenyl)-2-propenamide hydrochloride] | 3.60 ± 0.35 g | 6.74 ± 0.62* g |  |  | 247 to 248 °C |  |
| Cl.N=C(N)NCCCCNC(=O)/C=C/c1ccccc1F [Compound 65, (E)-3-(2-Fluorophenyl)-N-(4-guanidinobutyl)-2-propenamide hydrochloride] |  |  | 5.01 ± 0.52* g | 5.24 ± 0.47* g | 154 to 156 °C |  |
| O=C(/C=C/c1ccc(F)cc1)NCCCN1CC[S+]([O-])CC1 [Compound 67, (E)-3-(4-Fluorophenyl)-N-[3-(1-oxo-1,4-thiazinan-4-yl)propyl]-2-propenamide] |  |  | 10.63 ± 1.23* g | 10.71 ± 2.13* g | 130 to 131 °C |  |
| Cl.O=C(/C=C/c1ccccc1F)NCCCN1CC[S+]([O-])CC1 [Compound 68, (E)-3-(2-Fluorophenyl)-N-[3-(1-oxo-1,4-thiazinan-4-yl)propyl]-2-propenamide hydrochloride] | 9.04 ± 1.17* g | 11.25 ± 0.94* g |  |  | 182 to 183 °C |  |
| O=C(/C=C/c1ccccc1F)NCc1cccc(N2CCSCC2)c1 [Compound 69, (E)-3-(2-Fluorophenyl)-N-[(3-thiomorpholinophenyl)methyl]-2-propenamide] |  |  | 3.68 ± 0.40* g | 4.35 ± 0.51* g | 154 to 155 °C |  |
| O=C(/C=C/c1ccccc1F)NCc1cccc(N2CC[S+]([O-])CC2)c1 [Compound 70, (E)-3-(2-Fluorophenyl)-N-{[3-(oxo-1,4-thiazinan-4-yl)phenyl]methyl}-2-propenamide] |  |  | 4.09 ± 0.34* g | 3.41 ± 0.31* g | 156 to 157 °C |  |
